Data taken from PubChem BioAssay AID1963983 (Molecular Pharmacology Branch, DTP, NCI, 2024).
pIC50: −log10 of the molar value.

Tested on: 186277-243-T-J2-PDC multi-cell spheroid viability
Test: Anticancer human tumor 186277-243-T-J2-PDC patient-derived colon adenocarcinoma cell line growth inhibition [PI3K]
Details: for pIC50: curve of first compound; for viability, T/C: stronger effect = lower value
From the text: Combinatorial screen of targeted agents with the PI3K inhibitors inavolisib, alpelisib, duvelisib, and copanlisib in multi-cell type tumor spheroids
A high-throughput screen of multi-cell type tumor spheroids was designed to identify active combinations of targeted small molecules and PI3K pathway inhibitors. Complex spheroids include a stromal component modeled by human endothelial cells (HUVEC) and fibroblasts modeled by human mesenchymal stem cells (MSCs). The concentration ranges selected for each drug and investigational agent were based upon clinically achievable concentrations if the clinical Cmax of the agent was known.
Compounds. The drugs and investigational agents: inavolisib (NSC800729), alpelisib (NSC765974), duvelisib (NSC772469), copanlisib (NSC816437), ipatasertib (NSC767898), afuresertib (NSC778305), talazoparib (NSC767125), sapanisertib (NSC764658), selumetinib (NSC741078), tovorafenib (DAY101, NSC766906), vemurafenib (NSC761431), ravoxertinib (NSC781343), sotorasib (NSC818433), MRTX1133 (NSC 836407), abemaciclib (NSC 768073), palbociclib (NSC758247), venetoclax (NSC 766270), SY5609 (NSC837396), enzalutamide (NSC755605), and darolutamide (NSC825331), were obtained from the National Cancer Institute (NCI) Developmental Therapeutics Program Chemical Repository. The FDA-approved anticancer drug set is available from the NCI Developmental Therapeutics Program. […] The stock solutions were prepared in dimethyl sulfoxide (DMSO, Sigma-Aldrich, St. Louis, MO, cat. D2650) at 800-fold the tested concentration and stored at -70 degrees C prior to their use. All drugs and investigational agents were tested over a range starting from a high concentration at or near the clinical Cmax and decreasing in half-log increments. If the clinical Cmax for an agent had not been determined, the highest concentration tested was 10 microM.
Cell Culture. All cells were maintained in an incubator at 37 degrees C and 5% CO2 with 95% humidity. The PDC lines were cultured according to standard operating procedures established by the NCI PDMR (https://pdmr.cancer.gov/sops/default.htm). All PDCs were thawed and cultured in Matrigel-coated flasks prepared with a working solution of 1X Ham's F-12 nutrient mix, without supplementation (Invitrogen, Waltham, MA, cat. 11765054), 100 U/mL penicillin-streptomycin (Invitrogen, cat. 15140122), and 2.5% Matrigel (Corning Inc., Corning, NY, cat. 354248) for the first three passages. The 354836-022-R-J1-PDC, 475296-252-R-J1-PDC, and 997726-040-R-J2-PDC lines were cultured in 6A media, which includes advanced DMEM/F-12 (Thermo Fisher Scientific, cat. 12634028), 10 mM HEPES (Thermo Fisher Scientific, cat. 15630080), 1X GlutaMAX supplement (Thermo Fisher Scientific, cat. 35050061), 0.1 mg/mL primocin (InvivoGen, San Diego, CA, cat. ant-pm-2), 10% defined fetal bovine serum, heat inactivated (HyClone Laboratories Inc., Logan, UT, cat. SH30070.03HI), 50% L-WRN conditioned media (ATCC, cat. CRL-3276), 1.25 mM N-Acetyl-L-cysteine (Sigma-Aldrich, cat. A9165), 10 mM nicotinamide (Sigma-Aldrich, cat. N0636), 1X B-27 supplement (Thermo Fisher Scientific, cat. 17504044), 1X N-2 supplement (Thermo Fisher Scientific, cat. 17502048), and 10 microM Y-27632 dihydrochloride (Tocris Bioscience, Bristol, United Kingdom, cat. 1254). The 624824-186-R-J2-PDC line was cultured in 6C/Colon 1B media, which includes all 6A media components plus 50 ng/mL human EGF recombinant protein (Thermo Fisher Scientific, cat. PHG0311). […]
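Further: spheroids exposed to compounds for seven days before viability reading.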
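Wherever viability, T/C is given: 100% = DMSO vehicle control viability.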

## CC1(C)CCC(Nc2ncc(C(F)(F)F)c(-c3c[nH]c4c(P(C)(C)=O)c(C#N)ccc34)n2)CN1 (configuration not stated) + COc1c(OCCCN2CCOCC2)ccc2c3n(c(=NC(=O)c4cnc(N)nc4)nc12)CCN3
Second compound 0.00316 µM
  pIC50: 5.44
Second compound 0.01 µM
  pIC50: 5.91
Second compound 0.0316 µM
  pIC50: > 7.50
Second compound 0.1 µM
  pIC50: > 7.50
Second compound 0.316 µM
  pIC50: > 7.50
Second compound 1 µM
  pIC50: > 7.50
Second compound 0.00316 µM, first compound 0.0316 µM
  viability, T/C: 64.8%
Second compound 0.00316 µM, first compound 0.1 µM
  viability, T/C: 57.4%
Second compound 0.00316 µM, first compound 0.316 µM
  viability, T/C: 52%
Second compound 0.00316 µM, first compound 1 µM
  viability, T/C: 55.4%
Second compound 0.00316 µM, first compound 3.16 µM
  viability, T/C: 56.2%
Second compound 0.00316 µM, first compound 10 µM
  viability, T/C: 0.33%
Second compound 0.01 µM, first compound 0.0316 µM
  viability, T/C: 71.5%
Second compound 0.01 µM, first compound 0.1 µM
  viability, T/C: 54.7%
Second compound 0.01 µM, first compound 0.316 µM
  viability, T/C: 50.8%
Second compound 0.01 µM, first compound 1 µM
  viability, T/C: 54.1%
Second compound 0.01 µM, first compound 3.16 µM
  viability, T/C: 40.6%
Second compound 0.01 µM, first compound 10 µM
  viability, T/C: 0.85%
Second compound 0.0316 µM, first compound 0.0316 µM
  viability, T/C: 37.3%
Second compound 0.0316 µM, first compound 0.1 µM
  viability, T/C: 36.6%
Second compound 0.0316 µM, first compound 0.316 µM
  viability, T/C: 26.8%
Second compound 0.0316 µM, first compound 1 µM
  viability, T/C: 25.9%
Second compound 0.0316 µM, first compound 3.16 µM
  viability, T/C: 14.5%
Second compound 0.0316 µM, first compound 10 µM
  viability, T/C: 1.27%
Second compound 0.1 µM, first compound 0.0316 µM
  viability, T/C: 7.6%
Second compound 0.1 µM, first compound 0.1 µM
  viability, T/C: 10.5%
Second compound 0.1 µM, first compound 0.316 µM
  viability, T/C: 7.54%
Second compound 0.1 µM, first compound 1 µM
  viability, T/C: 6.56%
Second compound 0.1 µM, first compound 3.16 µM
  viability, T/C: 5.27%
Second compound 0.1 µM, first compound 10 µM
  viability, T/C: 1.02%
Second compound 0.316 µM, first compound 0.0316 µM
  viability, T/C: 2.73%
Second compound 0.316 µM, first compound 0.1 µM
  viability, T/C: 3.91%
Second compound 0.316 µM, first compound 0.316 µM
  viability, T/C: 3.66%
Second compound 0.316 µM, first compound 1 µM
  viability, T/C: 3.38%
Second compound 0.316 µM, first compound 3.16 µM
  viability, T/C: 1.31%
Second compound 0.316 µM, first compound 10 µM
  viability, T/C: 0.34%
Second compound 1 µM, first compound 0.0316 µM
  viability, T/C: 2.08%
Second compound 1 µM, first compound 0.1 µM
  viability, T/C: 1.57%
Second compound 1 µM, first compound 0.316 µM
  viability, T/C: 1.5%
Second compound 1 µM, first compound 1 µM
  viability, T/C: 1.26%
Second compound 1 µM, first compound 3.16 µM
  viability, T/C: 1.04%
Second compound 1 µM, first compound 10 µM
  viability, T/C: 0.42%
